Assay results from patent publication US11084783B2, “O-alkyl-benzylideneguanidine derivatives and therapeutic use for the treatment of disorders associated with an accumulation of misfolded proteins” (INFLECTIS BIOSCIENCE, priority 2014, dated 2021).

Tests used:
[1] = test system: neonatal rat cardiomyocytes; assay: Hypoxia-induced apoptosis in cultured neonatal rat cardiomyocytes; format: cell-based; settings: hypoxia 0.3% O2 for 36 h, apoptotic cells by FACS
Description: Primary cultures of neonatal rat cardiomyocytes were obtained from the ventricles of 1-day-old Sprague Dawley rats (Janvier, France). The rats were euthanized and their hearts excised. Hearts cut into small pieces (1-2 mm^3) and enzymatically digested using the Neonatal Heart Dissociation Kit rat and the gentleMACS™ Dissociator (MiltenyiBiotec, Germany). After dissociation, the homogenates were filtered (70 μm) to obtain a single-cell suspension. Isolated cells were collected by centrifugation and resuspended in Dulbecco's Modified Eagle's Medium (DMEM) containing 10% horse serum (HS), 5% fetal bovine serum (FBS) and 1% penicillin/streptomycin. Cultures were enriched with myocytes by pre-plating for 90 min to deplete the population of non-myocytes. Non-attached cells were plated onto 6- or 96-well plates at an appropriate cell density. […]
After 24 hours, the cardiomyocytes were treated with different concentrations of test compound in culture medium with 0.1% DMSO. […] Thirty minutes after starting the treatments, the cells were incubated in the hypoxic culture chamber (N2/CO2, 95%/5%; final measured O2: 0.3%) for 36 hours. […]
At the end of the treatment period, flow cytometry were performed to measure the amount of apoptotic cells. […] The mixture was incubated for 15 min in the dark at room temperature, and cellular fluorescence was then measured by FACS scan flow cytometry.

[2] = test system: amyloid-beta 1-42 injured primary cortical rat neurons; assay: In vitro Alzheimer disease model: amyloid-beta 1-42 injured primary cortical rat neurons; format: cell-based; settings: Amyloid-beta 1-42 20 μM, 24 hours; total number of neurons (MAP-2)
Method: Rat cortical neurons were cultured as described by Singer et al., (1999 J. Neuroscience 19 pp2455-63) and Callizot et al., (2013 J.Neurosci. Res. 91 pp706-16). Pregnant females (Wistar; Janvier Labs) at 15 days of gestation were killed by cervical dislocation. Fetuses were collected and immediately placed in ice-cold L15 Leibovitz medium (Pan Biotech, Batch: 9310614) with a 2% penicillin (10,000 U/mI) and streptomycin (10 mg/ml) solution (PS; Pan Biotech, Batch: 1451013) and 1% bovine serum albumin (BSA; Pan Biotech, Batch: h140603). Cortex was treated for 20 min at 37° C. with a trypsin-EDTA (Pan Biotech, Batch: 5890314) solution at a final concentration of 0.05% trypsin and 0.02% EDTA. […] Viable cells were counted in a Neubauer cytometer, using the trypan blue exclusion test. […]
The Amyloid-beta1-42 preparation was done following the procedure described by Callizot et al., 2013. […] Amyloid-beta 1-42 preparation was added to a final concentration of 20 μM (including to ˜2 μM of toxic oligomers measured by WB) diluted in control medium in presence of drugs. […]
The immunolabeled cultures were automatically examined with ImageXpress (Molecular device USA) at ×20 magnification. For each condition, 30 automatically fields per well (representing ˜80% of the total surface of the well) from 3 wells were analyzed. […] All values were expressed as mean +/−SEM (s.e.mean) (n=3 wells per condition per culture).

SMILES | protection from hypoxia-induced apoptosis (FIG. 10) [1] | protection of amyloid-beta 1-42 injured primary cortical rat neurons (FIG. 4) [2]
CCO/N=C(\N)N/N=C/c1ccccc1Cl [Compound 10, 2-(2-chlorobenzylidene)-N′-ethoxyhydrazinecarboximidamide] | protects | –
CCCONC(=N)N/N=C/c1ccccc1Cl [Compound 12, 2-(2-chlorobenzylidene)-N-propoxyhydrazinecarboximidamide] | – | dose dependent protection
